Data reported in publication doi:10.1101/2025.01.13.632836v7 (biorxiv, 2026).

Target: hERG potassium channel (Homo sapiens, UniProt Q12809)
Experiment: fluorescence polarization, fluorescent tracer displacement
Assay type: binding

hERG potassium channel, sequence (Q12809 whole entry): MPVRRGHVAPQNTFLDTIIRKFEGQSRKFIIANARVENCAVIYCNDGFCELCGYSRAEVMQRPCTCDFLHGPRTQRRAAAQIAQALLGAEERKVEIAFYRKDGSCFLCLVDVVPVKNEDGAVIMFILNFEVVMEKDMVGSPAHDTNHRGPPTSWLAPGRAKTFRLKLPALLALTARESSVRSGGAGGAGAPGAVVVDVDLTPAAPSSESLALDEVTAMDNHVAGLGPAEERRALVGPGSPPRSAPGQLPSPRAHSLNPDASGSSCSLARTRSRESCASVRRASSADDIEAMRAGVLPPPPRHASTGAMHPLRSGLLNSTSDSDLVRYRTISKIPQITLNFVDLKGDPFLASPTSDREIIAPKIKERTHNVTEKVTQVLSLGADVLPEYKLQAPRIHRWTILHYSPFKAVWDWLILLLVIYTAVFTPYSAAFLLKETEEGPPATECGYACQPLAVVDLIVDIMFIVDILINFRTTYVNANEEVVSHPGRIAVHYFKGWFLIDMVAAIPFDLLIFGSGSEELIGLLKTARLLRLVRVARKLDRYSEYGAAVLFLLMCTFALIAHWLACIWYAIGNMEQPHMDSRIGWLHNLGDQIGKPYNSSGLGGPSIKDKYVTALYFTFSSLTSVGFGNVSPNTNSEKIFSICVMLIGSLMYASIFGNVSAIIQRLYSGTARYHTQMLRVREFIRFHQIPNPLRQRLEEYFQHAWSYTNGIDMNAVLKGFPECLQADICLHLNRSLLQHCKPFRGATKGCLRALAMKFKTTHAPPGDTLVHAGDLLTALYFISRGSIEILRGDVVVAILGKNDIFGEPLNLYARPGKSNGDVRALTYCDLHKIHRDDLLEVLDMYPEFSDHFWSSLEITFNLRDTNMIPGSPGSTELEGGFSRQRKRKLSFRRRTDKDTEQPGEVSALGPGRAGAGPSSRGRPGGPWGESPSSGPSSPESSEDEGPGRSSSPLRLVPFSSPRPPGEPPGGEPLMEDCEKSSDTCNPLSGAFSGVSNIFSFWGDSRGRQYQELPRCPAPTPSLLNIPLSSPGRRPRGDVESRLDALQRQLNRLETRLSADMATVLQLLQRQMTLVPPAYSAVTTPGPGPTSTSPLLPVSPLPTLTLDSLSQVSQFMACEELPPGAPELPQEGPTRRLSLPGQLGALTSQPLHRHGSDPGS

Cc1c(-c2ccc(O)cc2)n(Cc2ccc(OCCN3CCCCC3)cc2)c2ccc(O)cc12 [MDL-001]
IC50: 13 µM
